Results published in patent US9399646B2 (Genentech, Inc., priority 2010, dated 2016).

Experiments:
MCF-7 cells = test: Breast cancer cell viability assay (CellTiter-Glo, 5 days); assay type: cell-based; conditions: 5 days' compound exposure; for IC50: Homo sapiens, MCF7, 120 h
In short: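 Eleven-point semilog compound series, final 0.3-0.000003 μM, added to overnight-adhered MCF-7 cells (320/well; RPMI, 10% FBS, 20 mM HEPES) for 5 days. Viability read by CellTiter-Glo luminescence, background from medium without cells subtracted, expressed relative to untreated cells.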

ER-α in MCF-7 cells = molecular target: T1, ER-α in MCF-7 cells (Homo sapiens, UniProt P03372); test: Breast cancer cell ER-α in cell western assay (SP1); assay type: cell-based; set-up: endogenous in cells; host or cells: MCF-7; conditions: 4 or 24 hr post compound addition; for Emax: MCF7, SP1 antibody, read-out: ER-α In Cell Western Assay (SP1) Max Response; for DC50: SP1 antibody, read-out: ER-α In Cell Western Assay (SP1) IC50
T1 sequence (P03372 1-595): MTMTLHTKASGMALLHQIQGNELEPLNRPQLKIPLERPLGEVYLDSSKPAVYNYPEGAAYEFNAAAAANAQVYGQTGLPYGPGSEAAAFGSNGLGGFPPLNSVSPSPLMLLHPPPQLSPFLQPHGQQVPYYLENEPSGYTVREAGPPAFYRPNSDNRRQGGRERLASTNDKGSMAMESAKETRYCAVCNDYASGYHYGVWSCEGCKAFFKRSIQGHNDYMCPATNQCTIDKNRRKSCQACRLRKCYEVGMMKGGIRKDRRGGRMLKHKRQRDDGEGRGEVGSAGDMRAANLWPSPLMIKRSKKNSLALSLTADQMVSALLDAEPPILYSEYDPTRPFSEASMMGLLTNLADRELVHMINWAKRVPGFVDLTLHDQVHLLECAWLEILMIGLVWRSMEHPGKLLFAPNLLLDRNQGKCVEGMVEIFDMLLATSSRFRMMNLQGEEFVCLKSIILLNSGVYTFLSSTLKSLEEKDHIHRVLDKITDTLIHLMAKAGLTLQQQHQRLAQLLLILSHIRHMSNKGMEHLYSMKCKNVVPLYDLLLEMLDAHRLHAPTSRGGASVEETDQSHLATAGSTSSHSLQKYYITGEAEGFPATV
In short: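 MCF-7, charcoal-stripped FBS/RPMI, 3200 cells/well, adhered overnight. Formalin fix, SP1 Ab o/n 4 °C, IRDye 800CW + DRAQ5; % ER = 800/700 ratio vs untreated.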

| SMILES | MCF7 Viability Assay Max Response (MCF-7 cells) | IC50 (MCF-7 cells) [µM] | Emax (ER-α in MCF-7 cells) [%] | DC50 (ER-α in MCF-7 cells) [µM] |
| --- | --- | --- | --- | --- |
| CC/C(=C(/c1ccc(/C=C/C(=O)O)cc1)c1ccc2ocnc2c1)c1ccccc1 [Compound 146] | ++ (++ = a single % value ≧ 40%) | > 0.1 | ≥ 40 | > 0.1 |
| CC/C(=C(/c1ccc(/C=C/c2noc(=O)[nH]2)cc1)c1ccc2scnc2c1)c1ccc(F)cc1Cl [Compound 436, 3-((E)-4-((E)-1-(Benzo[d]thiazol-5-yl)-2-(2-chloro-4-fluorophenyl)but-1-en-1-yl)styryl)-1,2,4-oxadiazol-5(4H)-one] | ++ (++ = a single % value ≧ 40%) | ≤ 0.1 | ≥ 40 | ≤ 0.1 |
| CC/C(=C(/c1ccc(/C=C/C(=O)O)cc1)c1ccc2[nH]ncc2c1)c1cccc(OCCCOC)c1 [Compound 342, (E)-3-(4-((E)-1-(1H-Indazol-5-yl)-2-(3-(3-methoxypropoxy)phenyl)but-1-en-1-yl)phenyl)acrylic acid] | ++ (++ = a single % value ≧ 40%) | ≤ 0.1 | ≥ 40 | ≤ 0.1 |
| CC/C(=C(/c1ccc(/C=C/C(=O)O)cc1)c1ccc2[nH]ncc2c1F)c1cccc(OC2CCOCC2)c1 [Compound 344, (E)-3-(4-((E)-1-(4-Fluoro-1H-indazol-5-yl)-2-(3-((tetrahydro-2H-pyran-4-yl)oxy)phenyl)but-1-en-1-yl)phenyl)acrylic acid] | ++ (++ = a single % value ≧ 40%) | > 0.1 | ≥ 40 | ≤ 0.1 |
| CC/C(=C(/c1ccc(/C=C/C(=O)O)cc1)c1ccc2[nH]ncc2c1)c1cccc(-c2cccnc2)c1 [Compound 393, (E)-3-(4-((E)-1-(1H-Indazol-5-yl)-2-(3-(pyridin-3-yl)phenyl)but-1-en-1-yl)phenyl)acrylic acid] | ++ (++ = a single % value ≧ 40%) | ≤ 0.1 | ≥ 40 | ≤ 0.1 |
| CC/C(=C(/c1ccc(/C=C/C(=O)O)cc1)c1ccc2[nH]ncc2c1)c1cccc(Oc2nccs2)c1 [Compound 370, (E)-3-(4-((E)-1-(1H-Indazol-5-yl)-2-(3-(thiazol-2-yloxy)phenyl)but-1-en-1-yl)phenyl)acrylic acid] | ++ (++ = a single % value ≧ 40%) | ≤ 0.1 | ≥ 40 | ≤ 0.1 |
| CC/C(=C(/c1ccc(/C=C/C(=O)NS(C)(=O)=O)cc1)c1ccc2[nH]ncc2c1)c1ccccc1 [Compound 423, (E)-3-(4-((E)-1-(1H-Indazol-5-yl)-2-phenylbut-1-en-1-yl)phenyl)-N-(methylsulfonyl)acrylamide] | ++ (++ = a single % value ≧ 40%) | ≤ 0.1 | ≥ 40 | ≤ 0.1 |
| CC/C(=C(/c1ccc(/C=C/C(=O)O)cc1)c1ccc2c(=O)[nH]ccc2c1)c1ccccc1 [Compound 97, (E)-3-(4-((E)-1-(1-Oxo-1,2-dihydroisoquinolin-6-yl)-2-phenylbut-1-en-1-yl)phenyl)acrylic acid] | ++ (++ = a single % value ≧ 40%) | ≤ 0.1 | ≥ 40 | > 0.1 |
| CC/C(=C(/c1ccc(/C=C/C(=O)O)cc1)c1ccc2[nH]ncc2c1)c1ccc(N(C)C)cc1 [Compound 62, (E)-3-(4-((E)-2-(4-(Dimethylamino)phenyl)-1-(1H-indazol-5-yl)but-1-en-1-yl)phenyl)acrylic acid] | ++ (++ = a single % value ≧ 40%) | > 0.1 | ≥ 40 | > 0.1 |
| CC/C(=C(/c1ccc(/C=C/C(=O)O)cc1)c1ccnc2[nH]ncc12)c1ccccc1 [Compound 56, (E)-3-(4-((E)-2-Phenyl-1-(1H-pyrazolo[3,4-b]pyridin-4-yl)but-1-en-1-yl)phenyl)acrylic acid] | ++ (++ = a single % value ≧ 40%) | > 0.1 | ≥ 40 | ≤ 0.1 |
| CC/C(=C(/c1ccc(/C=C/C(=O)O)cc1)c1ccc2[nH]ncc2c1)c1ccccc1-c1ccccc1 [Compound 28, (E)-3-(4-((E)-2-([1,1′-Biphenyl]-2-yl)-1-(1H-indazol-5-yl)but-1-en-1-yl)phenyl)acrylic acid] | ++ (++ = a single % value ≧ 40%) | > 0.1 | ≥ 40 | > 0.1 |
| CC/C(=C(/c1ccc(/C=C/C(=O)O)cc1)c1cccc2[nH]nnc12)c1ccc(F)cc1Cl [Compound 89, (E)-3-(4-((E)-1-(1H-Benzo[d][1,2,3]triazol-4-yl)-2-(2-chloro-4-fluorophenyl)but-1-en-1-yl)phenyl)acrylic acid] | ++ (++ = a single % value ≧ 40%) | ≤ 0.1 | ≥ 40 | ≤ 0.1 |
| O=C(/C=C/c1ccc(/C(=C(\c2ccccc2)C2CCC2)c2ccc3[nH]nc(F)c3c2)cc1)NC1CC1 [Compound 413, (E)-3-(4-((E)-2-Cyclobutyl-1-(3-fluoro-1H-indazol-5-yl)-2-phenylvinyl)phenyl)-N-cyclopropylacrylamide] | ++ (++ = a single % value ≧ 40%) | ≤ 0.1 | ≥ 40 | ≤ 0.1 |
| CC/C(=C(/c1ccc(/C=C/C(=O)O)cc1)c1ccc2[nH]ncc2c1)c1cccc(N2CCCC2)c1 [Compound 249] | ++ (++ = a single % value ≧ 40%) | > 0.1 | ≥ 40 | ≤ 0.1 |
| CC/C(=C(/c1ccc(/C=C/C(=O)O)cc1)c1cc2ccccc2s1)c1ccccc1 [Compound 142, (E)-3-(4-((E)-1-(Benzo[b]thiophen-2-yl)-2-phenylbut-1-en-1-yl)phenyl)acrylic acid] | ++ (++ = a single % value ≧ 40%) | ≤ 0.1 | ≥ 40 | ≤ 0.1 |
| CC/C(=C(/c1ccc(/C=C/c2nsc(=O)[nH]2)cc1)c1ccc2[nH]ncc2c1)c1ccccc1 [Compound 438, 3-((E)-4-((E)-1-(1H-Indazol-5-yl)-2-phenylbut-1-en-1-yl)styryl)-1,2,4-thiadiazol-5(4H)-one] | ++ (++ = a single % value ≧ 40%) | ≤ 0.1 | ≥ 40 | ≤ 0.1 |
| CCOC(=O)/C=C/c1ccc(/C(=C(/CC)c2ccccc2)c2cccc3[nH]ncc23)cc1 [Compound 175, (E)-Ethyl 3-(4-((E)-1-(1H-Indazol-4-yl)-2-phenylbut-1-en-1-yl)phenyl)acrylate] | + (+ = a single % value < 40%) | ≤ 0.1 | ≥ 40 | ≤ 0.1 |
| CC/C(=C(/c1ccc(/C=C/C(=O)O)cc1)c1ccc2[nH]ncc2c1)c1ccc(OCCCC(=O)O)cc1 [Compound 353, 4-(4-((E)-1-(4-((E)-2-Carboxyvinyl)phenyl)-1-(1H-indazol-5-yl)but-1-en-2-yl)phenoxy)butanoic acid] | + (+ = a single % value < 40%) | > 0.1 | ≥ 40 | > 0.1 |
| CC/C(=C(/c1ccc(OC2(C(=O)O)CC2)cc1)c1ccc2[nH]ncc2c1)c1ccc(F)cc1Cl [Compound 332, (E)-1-(4-(2-(2-Chloro-4-fluorophenyl)-1-(1H-indazol-5-yl)but-1-en-1-yl)phenoxy)cyclopropanecarboxylic acid] | ++ (++ = a single % value ≧ 40%) | > 0.1 | ≥ 40 | > 0.1 |
| CC/C(=C(/c1ccc(/C=C/C(=O)NC)cc1)c1ccc2scnc2c1)c1ccccc1 [Compound 427, (E)-3-(4-((E)-1-(Benzo[d]thiazol-5-yl)-2-phenylbut-1-en-1-yl)phenyl)-N-methylacrylamide] | ++ (++ = a single % value ≧ 40%) | ≤ 0.1 | ≥ 40 | ≤ 0.1 |
| CC/C(=C(/c1ccc(/C=C/C(=O)O)cc1)c1ccc2[nH]cnc2c1)c1ccccc1 [Compound 83, (E)-3-(4-((E)-1-(1H-Benzo[d]imidazol-5-yl)-2-phenylbut-1-en-1-yl)phenyl)acrylic acid] | ++ (++ = a single % value ≧ 40%) | > 0.1 | ≥ 40 |  |
| CC/C(=C(/c1ccc(/C=C/C(=O)O)cc1)c1ccc2[nH]ncc2c1)c1ccc(OCCO)cc1 [Compound 360, (E)-3-(4-((E)-2-(4-(2-Hydroxyethoxy)phenyl)-1-(1H-indazol-5-yl)but-1-en-1-yl)phenyl)acrylic acid] | ++ (++ = a single % value ≧ 40%) | > 0.1 | ≥ 40 | > 0.1 |
